Data on 16 compounds can be found in ChEMBL document CHEMBL1125227, “Potential antitumor agents. 62. Structure-activity relationships for tricyclic compounds related to the colon tumor active drug 9-oxo-9H-xanthene-4-acetic acid” (J Med Chem, 1991).

Holding throughout (type): functional, organism-based
Holding throughout (conditions): Mus musculus

Test [1] concerns MC-38. Briefly: In Vivo antitumor effect on subcutaneously implanted C38 colon tumor in mice and examined by histopathology and compared with control.( - = <50% hemorrhagic response) at optimal dose of 500 (mg/kg).
The test system of test [2] is MC-38. Briefly: In Vivo antitumor effect on subcutaneously implanted C38 colon tumor in mice and examined by histopathology and compared with control.( - = <50% hemorrhagic response) at optimal dose of 750 (mg/kg).
The subject of test [3] is MC-38. Briefly: In Vivo antitumor effect on subcutaneously implanted C38 colon tumor in mice and examined by histopathology and compared with control.(+ = 50-90% hemorrhagic necrosis response) at optimal dose of 750 (mg/kg).
For test [4], the system named is MC-38. Briefly: In Vivo antitumor effect on subcutaneously implanted C38 colon tumor in mice and examined by histopathology and compared with control.( - = <50% hemorrhagic response) at optimal dose of 330 (mg/kg).
Test [5] relates to MC-38. Briefly: In Vivo antitumor effect on subcutaneously implanted C38 colon tumor in mice and examined by histopathology and compared with control.( ++ = >90% hemorrhagic necrosis response) at optimal dose of 220 (mg/kg).
In test [6] the test system is MC-38. Description: In Vivo antitumor effect on subcutaneously implanted C38 colon tumor in mice and examined by histopathology and compared with control.( + = 50-90% hemorrhagic necrosis response) at optimal dose of 500 (mg/kg).
The subject of test [7] is MC-38. Description: In Vivo antitumor effect on subcutaneously implanted C38 colon tumor in mice and examined by histopathology and compared with control.( + = 50-90% hemorrhagic necrosis response) at optimal dose of 750 (mg/kg).

As for `O=C(O)Cc1cccc2c1Oc1ccccc1C2`, the Activity in the test on MC-38 [1] is listed as <50% hemorrhagic response at optimal dose of 500 mg/kg.
With `O=C(O)Cc1cccc2oc3ccccc3c12`, in the test on MC-38 [2], the Activity is <50% hemorrhagic response at optimal dose of 750 mg/kg.
For the compound `O=C(O)Cc1cccc2c1C(=O)c1ccccc1C2=O`, the Activity in the test with MC-38 [3] was 50-90% hemorrhagic necrosis response at optimal dose of 750 mg/kg.
Turning to `O=C(O)Cc1cccc2c1Oc1ccccc1S2(=O)=O`, in the test with MC-38 [2], the Activity was <50% hemorrhagic response at optimal dose of 750 mg/kg.
With `O=C(O)Cc1cccc2c1Oc1ccccc1O2`, the Activity in the test on MC-38 [2] is <50% hemorrhagic response at optimal dose of 750 mg/kg.
Regarding `O=C(O)Cc1cccc2c(=O)c3ccccc3sc12`, the Activity with MC-38 [4] is listed as <50% hemorrhagic response at optimal dose of 330 mg/kg.
As for `O=C(O)Cc1cccc2c1Oc1ccccc1[S+]2[O-]` (stereo unspecified), the Activity in the test with MC-38 [2] was <50% hemorrhagic response at optimal dose of 750 mg/kg.
Take `O=C(O)Cc1cccc2c(=O)c3ccccc3oc12`: the Activity in the test with MC-38 [5] is >90% hemorrhagic necrosis response at optimal dose of 220 mg/kg.
Turning to `O=C(O)Cc1cccc2c1oc1ccccc12`, in the test with MC-38 [6], the Activity is reported as 50-90% hemorrhagic necrosis response at optimal dose of 500 mg/kg.
Take `O=C(O)Cc1cccc2c1S(=O)(=O)c1ccccc1C2=O`: the Activity with MC-38 [2] is <50% hemorrhagic response at optimal dose of 750 mg/kg.
Still for that read-out and setting: the value for `O=C(O)Cc1cccc2nc3ccccc3nc12` was <50% hemorrhagic response at optimal dose of 750 mg/kg; that for `O=C(O)Cc1cccc2c1Oc1ccccc1CC2=O` was <50% hemorrhagic response at optimal dose of 750 mg/kg.
As to `O=C(O)Cc1cccc2c1Oc1ccccc1S2`, the Activity in the test on MC-38 [4] was <50% hemorrhagic response at optimal dose of 330 mg/kg.
For the compound `O=C(O)Cc1cccc2cc3ccccc3cc12`, the Activity with MC-38 [7] is recorded as 50-90% hemorrhagic necrosis response at optimal dose of 750 mg/kg.
For the compound `O=C(O)Cc1cccc2c(=O)c3ccccc3[s+]([O-])c12` (stereo unspecified), the Activity in the test on MC-38 [2] was <50% hemorrhagic response at optimal dose of 750 mg/kg.
On to `O=C(O)Cc1cccc2c1Oc1ccccc1C(=O)C2`, for which the Activity in the test on MC-38 [7] was 50-90% hemorrhagic necrosis response at optimal dose of 750 mg/kg.
